Source: patent US4059622A, “Alkanolamine derivatives” (Imperial Chemical Industries Limited, priority 1970, dated 1977)

target: T1, cardiac β-receptors (Felis catus, UniProt Q9TST6); test: inhibition of the tachycardia produced by injection of 0.2 μg/kg isoprenaline into a chloralose-anaesthetised cat (β-adrenergic blocking activity); assay type: in vivo; conditions: cat, read-out: ED50, Compound A
T1 construct: bodyweight of isoprenaline into a chloralose-anaesthetised cat; from tissue; host or cells: heart of the living chloralose-anaesthetised cat (in vivo)
Procedure: The comparison of the β-adrenergic blocking activity of compounds of the present invention with those of the said prior specification may be carried out using a test standard in the art, namely the inhibition of the tachycardia produced by the injection of 0.2 μg. per kg. bodyweight of isoprenaline into a chloralose-anaesthetised cat.

T1 sequence (Q9TST6 whole entry): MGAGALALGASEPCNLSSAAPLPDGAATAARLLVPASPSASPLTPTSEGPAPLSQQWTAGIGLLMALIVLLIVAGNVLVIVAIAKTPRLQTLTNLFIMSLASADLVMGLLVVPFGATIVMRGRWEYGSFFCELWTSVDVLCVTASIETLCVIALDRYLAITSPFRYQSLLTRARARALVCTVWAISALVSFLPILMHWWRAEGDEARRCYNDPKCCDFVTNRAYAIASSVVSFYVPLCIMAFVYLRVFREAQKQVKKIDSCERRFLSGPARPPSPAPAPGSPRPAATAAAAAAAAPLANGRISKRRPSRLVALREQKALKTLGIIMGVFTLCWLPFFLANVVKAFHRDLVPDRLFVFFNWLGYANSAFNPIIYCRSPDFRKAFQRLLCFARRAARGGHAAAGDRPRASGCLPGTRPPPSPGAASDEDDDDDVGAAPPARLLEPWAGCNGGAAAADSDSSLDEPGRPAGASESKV

| Compound | ED50 |
| --- | --- |
| CC(C)NCC(O)COc1ccc(CC(N)=O)cc1 (stereo not shown) [Compound A, R^1 isopropyl, R^2 H, reference compound] | 0.096 mg/kg |

same assay, conditions: inhibition of tachycardia by 0.2 μg/kg isoprenaline, chloralose-anaesthetised cat; per kg bodyweight; read-out: 50% inhibitory dose (ED50), β-adrenergic blocking activity

| Compound | ED50 |
| --- | --- |
| CC(=O)Nc1ccc(OCC(O)CNC(C)C)cc1 (stereo not shown) [practolol, reference compound] | ~0.2 mg/kg |
| CC(C)NCC(O)COc1ccccc1CC(N)=O (stereo not shown) [1-o-carbamoylmethylphenoxy-3-isopropylaminopropan-2-ol, reference compound] | 0.481 mg/kg |
| CC(C)NCC(O)COc1ccccc1OCC(N)=O (stereo not shown) [Compound B, R^1 isopropyl, R^3 H, 1-isopropylamino-3-(o-carbamoylmethoxyphenoxy)propan-2-ol] | 0.058 mg/kg |

same assay, conditions: ortho-substituted compounds of the invention; chloralose-anaesthetised cat, isoprenaline 0.2 μg/kg; read-out: ED50, Compound B

| Compound | ED50 |
| --- | --- |
| CC(C)NCC(O)COc1ccccc1OCC(=O)NC(C)C (stereo not shown) [Compound B, R^1 isopropyl, R^3 isopropyl, 1-isopropylamino-3-(o-N-isopropylcarbamoylmethoxyphenoxy)propan-2-ol] | 0.2 mg/kg |
| CCCCNC(=O)COc1ccccc1OCC(O)CNC(C)C (stereo not shown) [Compound B, R^1 isopropyl, R^3 n-butyl] | 0.143 mg/kg |
| CC(C)(C)NCC(O)COc1ccccc1OCC(N)=O (stereo not shown) [Compound B, R^1 t-butyl, R^3 H, 1t-butylamino-3-(o-carbamoylmethoxyphenoxy)propan-2-ol] | 0.011 mg/kg |
| CC(C)NCC(O)COc1ccccc1OCC(N)=O (stereo not shown) [Compound B, R^1 isopropyl, R^3 H, 1-isopropylamino-3-(o-carbamoylmethoxyphenoxy)propan-2-ol] | 0.058 mg/kg |
| C=CCNC(=O)COc1ccccc1OCC(O)CNC(C)C (stereo not shown) [Compound B, R^1 isopropyl, R^3 allyl, 1-isopropylamino-3-(o-N-allylcarbamoylmethoxyphenoxy)propan-2-ol] | 0.034 mg/kg |
| CNC(=O)COc1ccccc1OCC(O)CNC(C)C (stereo not shown) [Compound B, R^1 isopropyl, R^3 methyl, 1-isopropylamino-3-(o-N-methylcarbamoylmethoxyphenoxy)propan-2-ol] | 0.02 mg/kg |

same assay, conditions: other highly active compounds of the invention; chloralose-anaesthetised cat, isoprenaline 0.2 μg/kg; read-out: ED50

| Compound | ED50 |
| --- | --- |
| CCNC(=O)COc1ccccc1OCC(O)CNC(C)C (stereo not shown) [R^1 isopropyl, R^3 ethyl, 1-isopropylamino-3-(o-N-ethylcarbamoylmethoxyphenoxy)propan-2-ol] | 0.068 mg/kg |
| CCNC(=O)COc1ccccc1OCC(O)CNC(C)(C)C (stereo not shown) [R^1 t-butyl, R^3 ethyl, 1-t-butylamino-3-(o-N-ethylcarbamoylmethoxyphenoxy)propan-2-ol] | 0.018 mg/kg |
| CC(C)(C)NCC(O)COc1ccccc1OCC(=O)NCCCO (stereo not shown) [R^1 t-butyl, R^3 3-hydroxypropyl, 1-o-(N-γ-hydroxypropylcarbamoyl-methoxy)phenoxy-3-t-butylamino-2-propanol] | 0.074 mg/kg |
| CC(C)NCC(O)COc1ccccc1OCC(=O)NCCO (stereo not drawn) [R^1 isopropyl, R^3 2-hydroxyethyl, 1-o-(N-β-hydroxyethylcarbamoylmethoxy)phenoxy-3-isopropylamino-2-propanol] | 0.009 mg/kg |
| CC(C)(C)NCC(O)COc1ccccc1OCC(=O)NCCO (stereo not drawn) [R^1 t-butyl, R^3 2-hydroxyethyl, 1-o-(N-β-hydroxyethylcarbamoylmethoxy)phenoxy-3-t-butylaminopropan-2-ol] | 0.04 mg/kg |
| C=CCNC(=O)COc1ccccc1OCC(O)CNC(C)(C)C (stereo not shown) [R^1 t-butyl, R^3 allyl, 1-t-butylamino-3-(o-N-allylcarbamoylmethoxyphenoxy)propan-2-ol] | 0.027 mg/kg |
| CC(C)NCC(O)COc1ccccc1OCC(=O)NCCCO (stereo not shown) [R^1 isopropyl, R^3 3-hydroxypropyl, 1-o-(N-γ-hydroxypropylcarbamoylmethoxy)phenoxy-3-isopropylamino-2-propanol] | 0.047 mg/kg |
| CNC(=O)COc1ccccc1OCC(O)CNC(C)(C)CO (stereo not shown) | 0.03 mg/kg |
| CNC(=O)COc1ccccc1OCC(O)CNC(C)(C)C (stereo not shown) [R^1 t-butyl, R^3 methyl, 1-t-butylamino-3-(o-N-methylcarbamoylmethoxyphenoxy)propan-2-ol] | 0.014 mg/kg |
| COCCNC(=O)COc1ccccc1OCC(O)CNC(C)C (stereo not drawn) [R^1 isopropyl, R^3 2-methoxyethyl, 1-o-(N-β-methoxyethylcarbamoylmethoxy)phenoxy-3-isopropylamino-2-propanol] | 0.027 mg/kg |

same assay, conditions: para-substituted prior-art compounds; chloralose-anaesthetised cat, isoprenaline 0.2 μg/kg; read-out: ED50, Compound A

| Compound | ED50 |
| --- | --- |
| CNC(=O)Cc1ccc(OCC(O)CNC(C)C)cc1 (stereo not shown) [Compound A, R^1 isopropyl, R^2 methyl, reference compound] | 0.335 mg/kg |
| CCCCNC(=O)Cc1ccc(OCC(O)CNC(C)C)cc1 (stereo not shown) [Compound A, R^1 isopropyl, R^2 n-butyl, reference compound] | 0.606 mg/kg |
| CC(C)(C)NCC(O)COc1ccc(CC(N)=O)cc1 (stereo not shown) [Compound A, R^1 t-butyl, R^2 H, reference compound] | 0.136 mg/kg |
| C=CCNC(=O)Cc1ccc(OCC(O)CNC(C)C)cc1 (stereo not shown) [Compound A, R^1 isopropyl, R^2 allyl, reference compound] | 1.47 mg/kg |
| CC(C)NCC(O)COc1ccc(CC(=O)NC(C)C)cc1 (stereo not shown) [Compound A, R^1 isopropyl, R^2 isopropyl, reference compound] | 0.225 mg/kg |
